Test results reported in patent US9512138B2, “Compositions and methods for treating cancer” (The Regents of the University of California, priority 2012, dated 2016).
“Also recorded” adds a separate entry of the source.

What was measured:
[1] = tested on: NF-κB/p65 phosphorylation; assay: Western blot of cisplatin-mediated phospho-NF-κB/p65 in A549 cells; assay type: cell-based, human; conditions: 5 μM cisplatin and/or 20 μM analog, time course
Protocol: FIG. 9. […] Western blots were then performed using anti-phospho-NF-κB/p65 antibody (Cell Signaling Technology #3036) and anti-phospho-IκBα antibody (CST #2859). Membranes were then stripped and reprobed with antibody against total NF-κB/p65 (CST #3987) and antibody against total IκBα (CST #4814).

[2] = tested on: angiomyolipoma (AML) cells; assay: Proliferation of angiomyolipoma (AML) cells; assay type: cell-based; conditions: 72 hours, IIA medium with 1% FBS, cell counts
Protocol: (§1) FIG. 19. […] Cells were counted and plated and then treated with parthenolide analogue JD203 or control for 72 hours using IIA medium with 1% FBS. At the end of the experiments, cell proliferation was quantitated based on cell counts. Experimental results (n=3) shown as % control (mean±SE).
(§2) We have tested inhibitory activity of parthenolide analogues using cell models for TSC-related proliferative disease. The ELT3 cells are a TSC2-null smooth muscle-derived cell line from a rat uterine leiomyoma and often used as a model for lymphangioleiomyomatosis (LAM) and other TSC-related proliferative diseases (75,76). Angiomyolipoma cells (AML) that have inactivating mutations in both alleles of the TSC2 gene were also used as an alternate cell model (77,78). Cells were routinely cultured in IIA complete medium (50% DMEM, 50% F-12, […] NaHCO3, […] FeSO4, 50 nM sodium selenite, […] insulin, 200 nM hydrocortisone, […] transferrin, 1 nM triiodothyronine, 10 mU/ml vasopressin, 10 nM cholesterol, 10 ng/ml epidermal growth factor) containing 15% FBS. For study of proliferation, cells were incubated for 3 days in IIA medium containing 1% FBS. Results of these experiments indicate that parthenolides may also have utility in the treatment of TSC-related proliferative diseases that are not classified as malignancies.

[3] = tested on: NF-κB/p65 phosphorylation; assay: Western blot of phospho-NF-κB/p65 in H23 cells; assay type: cell-based, human
Protocol: FIG. 7. […] After 60 min Western blot were performed using anti-phospho-NF-κB/p65 antibody (Cell Signaling Technology #3031). Membranes were stripped and re-probed with antibody against total NF-κB/p65 (CST #3037).
After 60 min, Western blots were done using anti-phospho-NFκB/p65 antibody (Cell Signaling).
Upon confirming that parthenolide analogues can inhibit NSCLC cell proliferation, induce cell death and enhance the cytotoxicity of chemotherapy, we began to investigate potential cellular mechanisms that may underlie this process. For example, we used Western Blot methods to determine phosphorylation of the p65 subunit of NF-κB. H23 cells were incubated in the presence of vehicle control or 10 μM concentration of the parthenolide derivatives (JD 201, 202, 203, 204) for 60 min. After treatment, cells were collected and homogenized in lysis buffer. Extracts were electrophoresed on 4-20% gradient SDS-PAGE gels and transferred to nitrocellulose membranes. Blots were probed with anti-phospho-NF-κB/p65 and NF-κB/p65 for a loading control.

[4] = tested on: MCF-7/TAMR breast cancer cells; assay: Proliferation of tamoxifen-resistant MCF-7/TMR (TAM-R) cells; assay type: cell-based, human; conditions: analogue at varying doses plus tamoxifen 1×10^-7 M, 48 hours; P<0.01
Protocol: MCF-7/CON cells are tamoxifen-sensitive, while MCF-7/HER2 and MCF-7/TMR cells are known to be tamoxifen-resistant (28,61,66,67). Except for TMR (64,68), cells were routinely cultured in RPMI 1640 media with 10% heat-inactivated FBS (28,64,66). For E2-free conditions, media were changed 48 h before studies to phenol-red free RPMI 1640 with 1% dextran-coated, charcoal-treated (DCC) FBS. TMR cells were derived by long-term continuous exposure of cells to 10^−7 M 4-hydroxy-tamoxifen by established methods (64,68) and were maintained with 10^−7 M 4-hydroxytamoxifen in medium. Levels of ERα and HER2 expression in these several cell lines were determined by use of Western blot methods.
Assays for Tumor Cell Proliferation. Breast tumor cells were be grown in RPMI 1640 media with 10% heat-inactivated FBS (except for TMR and TZR cells as noted above). For estrogen-free conditions, medium were changed 48 h before studies to phenol-red free RPMI 1640 with 1% dextran-coated, charcoal-treated (DCC) FBS, then treated with selected reagents. Cell counts and viability tests (Trypan blue) will be done every 24 hr for […]. After 48-72 hr, proliferation was assessed by cell counts.

[5] = tested on: cancer cells; assay: Structure-activity study of antitumor activity; conditions: compared to other known parthenolide derivatives such as DMAPT
Excerpt: We have developed a set of novel analogues of parthenolide which have both improved aqueous solubility and antitumor properties. An extensive structure-activity study was done to investigate parthenolide and its analogues. […] These water-soluble compounds, for example analog JD206, may be conjugated to sugars or peptides that may be selectively targeted to cancer cells, particularly cancer stem cells.

[6] = tested on: A549, H23, H2122 and H1975 NSCLC cells; assay: MTS cell viability/proliferation assay in NSCLC cell lines, 72 h; assay type: cell-based, human
Protocol: FIG. 5. Parthenolide analogues JD201-JD210 suppress human lung tumor cell proliferation in vitro. A549, H23, H2122 and H1975 NSCLC cells were treated with increasing concentrations of drugs (0.1-100 μM). After 72 h cell viability was assessed by MTS assay. Viable cells are expressed as percentage of vehicle control. P<0.01 (**), versus control group, P<0.05 (*), versus control group. Natural occurring parthenolide (PTL), parthenolide analogues JD201 (DMAPT)-JD210. Parthenolide analogues inhibit female (H1975, H2122) and male (H23, A549) NSCLC cell proliferation.
To determine the effect of parthenolide analogues in lung cancer cell proliferation we tested two male (A549, H23) and two female (H2122, H1975) lung cancer cell lines with increasing concentrations of parthenolide analogues (0.1, 1, 10 and 100 μM) for 72 hours.

[7] = Aqueous solubility; assay type: physicochemical
[8] = tested on: MCF-7/HER2 cells; assay: Proliferation of tamoxifen-resistant MCF-7/HER2 cells (cell counts); conditions: 72 hours
Protocol: Assays for Tumor Cell Proliferation. […] Cell counts and viability tests (Trypan blue) will be done every 24 hr for 2-33 days. After 48-72 hr, proliferation was assessed by cell counts.

[9] = tested on: ELT3 cells; assay: Proliferation of ELT3 cells (TSC-related disease model); assay type: cell-based, rat; conditions: 72 hours, IIA medium with 1% FBS, cell counts
Protocol: as §1, §2

[10] = tested on: SKBR3/TZR cells; assay: Proliferation of trastuzumab-resistant SKBR3/TZR cells; assay type: cell-based, human; design: dose or concentration left out as unconfirmed; conditions: 0.1 to 50 micromolar alone or with trastuzumab, 72 hours
Protocol: Assays for Tumor Cell Proliferation. […] Cell counts and viability tests (Trypan blue) will be done every 24 hr for […]. After 48-72 hr, proliferation was assessed by cell counts.
The human breast cancer cell line SKBR3 (ATCC) was obtained from the American Type Culture Collection (ATCC). Unless otherwise stated, monolayer cultures of SKBR3 were maintained in Dulbeccos' Modified Eagle's Media (DMEM):F12 medium with 10% FBS.

C/C1=C/CC[C@@]2(C)OC2[C@H]2OC(=O)[C@@H](CN(CCO)CCO)[C@@H]2CC1.O=C(O)/C=C/C(=O)O (stereo partly drawn) [JD203, (1aR,7aS,8R,10aS,Z)-8-((Bis(2-hydroxyethyl)amino)methyl)-1a,5-dimethyl-2,3,6,7,7a,8,10a, 10b-octahydrooxireno[2′,3′:9,10]cyclodeca[1,2-b]furan-9(1aH)-one, fumaric acid salt]
cisplatin-mediated phosphorylation of NF-κB/p65 [1]: inhibit cisplatin-mediated phosphorylation of NF-κB/p65 | proliferation of angiomyolipoma (AML) cells [2]: inhibits proliferation | phosphorylation of the p65 subunit of NF-κB ([3]; 10 μM, 60 min (FIG. 7)): reduced phosphorylation of the p65 subunit of NF-κB; also recorded: inhibit phosphory-lation of NF-κB/p65 | phosphorylation of NF-κB/p65 ([3]; 10 µM, 60 min (FIG. 13)): inhibit phosphorylation of NF-κB/p65 | proliferation of MCF-7/TAMR cells, combination with tamoxifen [4]: enhanced blockade of tumor cell proliferation; also recorded: promotes antitumor effects of tamoxifen | anticancer activity compared to DMAPT (JD201) [5]: strong anticancer activity | growth inhibition at 10 μM ([6]; 10 μM, A549, H23, H2122, H1975): Significant growth inhibition | growth inhibition at 100 μM ([6]; 100 μM, A549, H23, H2122, H1975): Significant growth inhibition | inhibitory activity relative to other analogues ([6]; FIG. 5, 0.1-100 μM): greater inhibitory activity than compounds 205 and 207 | water solubility compared to DMAPT (JD201) [7]: improved water solubility | proliferation of MCF-7/HER2 cells ([8]; 0.1-50 micromolar, cell counts, P<0.001 vs controls): dose-dependent (0.1-50 micromolar) reduction in proliferation | proliferation of MCF-7/HER2 cells, combination with tamoxifen ([8]; analogue 0.1 to 50 micromolar with tamoxifen 1×10^-7 M, P<0.01): greater reduction in cell proliferation than treatment with the analogue alone | proliferation of ELT3 cells [9]: inhibits proliferation | proliferation of SKBR3/TZR cells [10]: reduces proliferation of SKBRS/TZR cells alone and in combination with trastuzumab
